Reference: US20110105565A1, “WATER SOLUBLE SMALL MOLECULE INHIBITORS OF THE CYSTIC FIBROSIS TRANSMEMBRANE CONDUCTANCE REGULATOR” (THE REGENTS OF THE UNIVERSITY OF CALIFORNIA, priority 2008, published 2011)
In brackets after ≈: the same amount, converted by molar mass. Read-outs that look alike come from different tables or passages of the source.

Legend:
[1] = Solubility measurements in saline (PBS, LC/MS); assay type: physicochemical
Procedure: Solubility measurements. A saturated compound solution was prepared by addition of DMSO stock to phosphate buffered saline (final DMSO 2%) followed by sonication for 5 min at 25° C. and shaking at room temperature for 1 h. After centrifugation at 15,000 rpm for 1 h, the supernatant was analyzed by LC/MS with concentration determined from area under the curve, standardized against calibration data. A standard curve for each compound was obtained by plotting area under the curve from chromatograms against inhibitor concentration. The concentration range of the standard solutions was 1-15 μM (for 5) and 1-100 μM (other compounds). In all cases, standard curves prepared were linear with r>0.998.
A saturated drug solution of a compound was prepared by addition of the compound in DMSO to phosphate buffered saline (PBS), followed by sonication for 5 min at 25° C. Final concentration of DMSO was <2%. Each saturated solution was centrifuged and filtered. The saturated supernatant solution was diluted and injected into LC/MS. The concentration was determined from area under the curve using a calibration curve.

FRT cells = assay: Cytotoxicity measurements, crystal violet staining of FRT cells; assay type: cell-based, rat; conditions: 48 h
Procedure: Cytotoxicity measurements. FRT cells in confluent monolayers were incubated with compounds for 2 days. Cells were washed 3 times, fixed (cytofix, 30 min) and stained with crystal violet (100 μl, 0.5%, 10 min) using standard procedures. Excess crystal violet was removed by washing, and dye was extracted with Sorenson's buffer (0.1 M sodium citrate, 50% ethanol, pH 4.2). Crystal violet was quantified by measurement of absorbance at 650 nm. The percentage crystal violet staining was determined from test wells measured 8 times, compared to blanks (wells not containing cells) and vehicle-treated cells.
Cytotoxicity analysis was performed for Tetrazolo-172, Oxo-172, α-Me-172 and Pyridine-NO-172 (Compound 17) and compared with CFTRinh-172 (Table 3). […] Crystal violet staining was reduced for Tetrazolo-172 and α-Me-172 at 50 μM.

human wildtype CFTR = human wildtype CFTR (Homo sapiens, UniProt P13569); assay: Fluorescence cell-based assay of CFTR inhibition (YFP iodide influx, FRT cells); design: expressed in transfected cells; host or cells: Fisher rat thyroid (FRT) cells; conditions: given as ranges, read-out: IC50
human wildtype CFTR, sequence (P13569 whole entry): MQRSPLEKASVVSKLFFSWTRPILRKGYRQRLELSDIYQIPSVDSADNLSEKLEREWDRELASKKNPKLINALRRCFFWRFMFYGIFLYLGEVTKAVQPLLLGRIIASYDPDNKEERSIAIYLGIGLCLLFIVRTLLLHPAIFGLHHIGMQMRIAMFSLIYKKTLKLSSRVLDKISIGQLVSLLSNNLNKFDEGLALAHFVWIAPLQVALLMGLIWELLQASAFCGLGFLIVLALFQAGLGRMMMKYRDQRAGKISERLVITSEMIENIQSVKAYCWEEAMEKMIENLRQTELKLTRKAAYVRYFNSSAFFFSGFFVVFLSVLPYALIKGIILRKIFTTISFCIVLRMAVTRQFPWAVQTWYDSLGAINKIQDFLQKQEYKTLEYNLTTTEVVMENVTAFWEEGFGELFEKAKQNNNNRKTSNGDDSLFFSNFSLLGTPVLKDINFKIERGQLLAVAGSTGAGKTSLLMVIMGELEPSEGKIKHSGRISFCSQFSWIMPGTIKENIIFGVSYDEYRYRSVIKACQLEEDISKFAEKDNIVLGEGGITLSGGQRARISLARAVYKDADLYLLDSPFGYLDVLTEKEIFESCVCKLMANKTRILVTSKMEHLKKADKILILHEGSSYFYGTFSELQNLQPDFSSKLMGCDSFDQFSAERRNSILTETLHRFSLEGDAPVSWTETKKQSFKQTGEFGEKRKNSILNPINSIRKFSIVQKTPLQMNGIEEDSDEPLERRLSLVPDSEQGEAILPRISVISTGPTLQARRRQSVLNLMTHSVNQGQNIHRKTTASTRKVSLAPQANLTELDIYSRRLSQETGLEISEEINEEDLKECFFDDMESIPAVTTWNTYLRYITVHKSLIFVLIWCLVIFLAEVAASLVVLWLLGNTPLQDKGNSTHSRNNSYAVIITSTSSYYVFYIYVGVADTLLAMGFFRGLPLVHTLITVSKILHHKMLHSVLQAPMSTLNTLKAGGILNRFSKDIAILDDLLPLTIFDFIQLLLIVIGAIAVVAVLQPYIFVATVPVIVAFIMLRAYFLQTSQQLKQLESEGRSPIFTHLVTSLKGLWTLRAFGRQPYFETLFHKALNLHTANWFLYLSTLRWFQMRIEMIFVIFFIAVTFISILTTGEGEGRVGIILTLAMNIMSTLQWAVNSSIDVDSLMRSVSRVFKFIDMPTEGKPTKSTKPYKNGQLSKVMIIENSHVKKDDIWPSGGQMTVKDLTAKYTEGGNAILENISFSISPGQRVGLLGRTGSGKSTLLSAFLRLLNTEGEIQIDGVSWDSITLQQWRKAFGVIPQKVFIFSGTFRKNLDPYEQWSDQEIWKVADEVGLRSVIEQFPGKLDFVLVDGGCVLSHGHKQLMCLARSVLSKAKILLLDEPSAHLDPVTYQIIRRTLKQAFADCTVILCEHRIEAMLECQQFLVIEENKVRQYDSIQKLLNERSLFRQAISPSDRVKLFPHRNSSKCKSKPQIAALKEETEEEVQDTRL
Procedure: CFTR inhibition by thiazolidinone derivative compounds was determined by a fluorescence cell-based assay utilizing doubly transfected cells expressing human wild-type CFTR and a yellow fluorescent protein (YFP) iodide sensor, as described (see, e.g., Galietta, et al., J. Physiol. 281:C1734-C1742 (2001)). Fisher rat thyroid (FRT) cells stably expressing wild-type human CFTR and YFP-H148Q were cultured on 96-well black-wall plates as described (see, e.g., Ma, et al., J. Clin. Invest. 110:1651-1658 (2002)). Cells in 96-well plates were washed three times, and then CFTR was activated by incubation for 15 minutes with an activating cocktail containing 10 μM forskolin, 20 μM apigenin, and 100 μM IBMX. Test compounds were added 5 minutes before assay of iodide influx in which cells were exposed to a 100 mM inwardly directed iodide gradient. YFP fluorescence was recorded for 2 seconds before and 12 seconds after creation of the iodide gradient. Initial rates of iodide influx were computed from the time course of decreasing fluorescence after the iodide gradient.
CFTR-facilitated iodide influx following extracellular iodide addition results in quenching of cytoplasmic YFP fluorescence.

For `O=C1/C(=C/c2ccc(-c3nn[nH]n3)cc2)SC(=S)N1c1cccc(C(F)(F)F)c1` [Compound 6, (Z)-5-(4-(1H-tetrazol-5-yl)benzylidene)-2-thioxo-3-(3-(trifluoromethyl)phenyl)thiazolidin-4-one], the “increase of solubility in saline/water relative to CFTRinh-172” value [1] was 11 fold, the “Solubility in saline” value ([1]; Table 3, PBS, DMSO <2%) was 189 µM (≈ 81.9 µg/mL) and the “% Cell viability 20 μM” value (FRT cells; 20 μM, crystal violet staining) was 87%. For the same molecule, the “Crystal violet staining at 50 μM (in words)” value (FRT cells; 50 μM) was “reduced”, the “% Cell viability 50 μM” value (FRT cells; 50 μM, crystal violet staining) was 73% and the IC50 (human wildtype CFTR; Table 1, upper part, CFTR inhibitory activity) was 100 to 1000 nM. For the same molecule, the IC50 (human wildtype CFTR; Table 2 summary table) was 100 to 1000 nM.
